The numbers were not newly measured in patent US6579895B2, “Use of a celecoxib composition for fast pain relief” (Pharmacia Corporation, priority 2000, dated 2003), which cites them from elsewhere.

Structures are written as SMILES.

The subject of one data set is post-surgical pain. The settings on record: ibuprofen 400 mg; e.g. post-surgical pain.
Another data set concerns the target plasma albumin (Homo sapiens, UniProt P02768). The note with it: following oral administration.

Chain of plasma albumin (P02768 25-609): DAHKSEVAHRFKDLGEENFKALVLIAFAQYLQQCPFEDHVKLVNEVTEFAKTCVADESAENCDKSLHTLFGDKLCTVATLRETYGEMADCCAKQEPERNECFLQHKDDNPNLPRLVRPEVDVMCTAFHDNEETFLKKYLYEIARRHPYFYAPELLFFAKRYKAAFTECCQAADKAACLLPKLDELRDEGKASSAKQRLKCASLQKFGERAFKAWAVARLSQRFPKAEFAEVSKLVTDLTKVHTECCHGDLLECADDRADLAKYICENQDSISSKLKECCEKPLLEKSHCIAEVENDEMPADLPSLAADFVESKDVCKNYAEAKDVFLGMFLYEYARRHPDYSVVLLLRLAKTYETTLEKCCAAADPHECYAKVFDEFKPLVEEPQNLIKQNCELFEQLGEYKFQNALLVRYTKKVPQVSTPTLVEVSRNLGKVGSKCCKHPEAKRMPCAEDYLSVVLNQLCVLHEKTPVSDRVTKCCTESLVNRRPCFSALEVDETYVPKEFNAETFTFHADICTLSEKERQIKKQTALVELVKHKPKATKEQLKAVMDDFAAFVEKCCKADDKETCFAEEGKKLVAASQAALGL

As for `CC(C)Cc1ccc(C(C)C(=O)O)cc1` (centres unmarked) [Ibuprofen, ibuprofen], the “time after administration to an adequate level of suppression of pain” value in the data set on post-surgical pain is listed as “about 1 hour”. With `Cc1ccc(-c2cc(C(F)(F)F)nn2-c2ccc(S(N)(=O)=O)cc2)cc1` [celecoxib, 4-[5-(4-methylphenyl)-3-(trifluoromethyl)-1H-pyrazol-1-y1]benzenesulfonamide], the “binding to plasma albumin” value at plasma albumin is reported as “extensive binding”.
